US20220072011A1, “TREATMENTS OF ACCUMULATED FAT WITH DEOXYCHOLIC ACID AND SALTS THEREOF” (Allergan Sales, LLC, priority 2015, published 2022)

Assay: Precipitate formation from sodium deoxycholate solutions after 1 week of storage (visual inspection)
Type: physicochemical
Conditions: 1 week storage
Description: Solutions of sodium deoxycholate at different concentration were evaluated for precipitate formation after 1 week of storage. […] By visual inspection, the amount of precipitation can be rated as tabulated below.

In the case of `C[C@H](CCC(=O)[O-])[C@H]1CCC2C3CC[C@@H]4C[C@H](O)CC[C@]4(C)C3C[C@H](O)[C@@]21C.[Na+]` (stereo partly drawn) [Sodium Deoxycholate, sodium (4R)-4-((3R,5R,10S,12S,13R,17R)-3,12-dihydroxy-10,13-dimethylhexadecahydro-1H-cyclopenta[a]phenanthren-17-yl)pentanoate], the “Precipitation, Comment” value (0.5% w/v) is reported as “Significant amounts of precipitate visible to the naked eye” and the “Precipitation, Comment” value (1.0% w/v) is reported as “Significant amounts of precipitate visible to the naked eye”.
